Laboratory results taken from US20230263808A1 (UNIVERSITY OF FLORIDA RESEARCH FOUNDATION, INCORPORATED, priority 2020, published 2023).

Columns and labels:
C2C12 myotubes = test: Protein degradation: chymotrypsin-like proteasomal activity in C2C12 myotubes; type: cell-based, mouse
Method: (§1) A) C2C12 myotubes were assayed for chymotrypsin-like proteasomal activity. […] C) Quantitation of the ICW in panel B. D) ICW for surface expression of Glut4 on L6 myotubes. E) ICW for insulin-induced incorporation of puromycin into C2C12 myotube surface proteins. F-G) High-content imaging and analysis of C2C12 myoblasts stained with a Mitotracker dye. H) Assay reproducibility from screening 22 compounds on two separate occasions. The Pearson correlation coefficient, r, and its associated p-value is indicated.
(§2) C2C12 myocytes were used in all assays, except in the Glut4 translocation assay where L6 rat myocytes were used. ICW, In-Cell Western. Also see Methods.
To avoid such effects on myogenesis, we switched myoblasts to differentiation media, and then on day 4, added 10 μM cytarabine, a chemotherapy agent that kills dividing cells, and then adding GCs on day 6 or 7 and completing assays in day 8 (FIG. 8).
Physiologically, the effects of GCs on protein balance and Glut4 translocation vary in vivo depending upon the stressor. For example, GCs mediate atrophy in response to fasting but not exercise. […] To assess protein degradation, we measured chymotrypsin-like proteasomal activity (FIG. 2, A). The activating phosphorylation of AKT at Thr308 (pAKT) was measured using a LI-COR In-Cell Western assay (FIG. 2, B and C). The rate-limiting step in insulin-mediated glucose uptake is the translocation of the glucose transporter, Glut4, to the surface membrane, which we also measured by In-Cell Western without permeabilizing the myotubes (FIG. 2, D). Surface Sensing of Translation (SUnSET) (Schmidt et al., Nat Methods 6, 275-277, 2009) assay was used to measure protein synthesis by In-Cell Western, following treatment of myotubes with a low dose of puromycin, which incorporates into translating proteins, but at a low enough level to provide a readout for global protein synthesis (FIG. 2, E). […]

[1] = test system: IL-1β-induced IL-6 secretion by A549 lung cells; test: IL-1β-induced IL-6 secretion by A549 lung cells (AlphaLISA); type: cell-based
L6 myotubes = test: Glut4 translocation to the myotube surface (In-Cell Western); type: cell-based, rat
Method: as §1, §2
Physiologically, the effects of GCs on protein balance and Glut4 translocation vary in vivo depending upon the stressor. For example, GCs mediate atrophy in response to fasting but not exercise. […] To assess protein degradation, we measured chymotrypsin-like proteasomal activity (FIG. 2, A). The activating phosphorylation of AKT at Thr308 (pAKT) was measured using a LI-COR In-Cell Western assay (FIG. 2, B and C). The rate-limiting step in insulin-mediated glucose uptake is the translocation of the glucose transporter, Glut4, to the surface membrane, which we also measured by In-Cell Western without permeabilizing the myotubes (FIG. 2, D). Surface Sensing of Translation (SUnSET) (Schmidt et al., Nat Methods 6, 275-277, 2009) assay was used to measure protein synthesis by In-Cell Western, following treatment of myotubes with a low dose of puromycin, which incorporates into translating proteins, but at a low enough level to provide a readout for global protein synthesis (FIG. 2, E). Lastly, we developed a high-content imaging assay in myoblasts stained with a MitoTracker dye, so that individual mitochondrial networks could be visualized with adequate resolution to quantitate area, segmentation, branching, and fluorescence intensity which is a measure of mitochondrial membrane potential (ψm).

androgen receptor (AR) = target: T1, androgen receptor (AR) (Homo sapiens, UniProt P10275); test: AR-luciferase assay in 293T cells; type: cell-based
T1 construct: expressed in transfected cells; host or cells: 293T
T1 sequence (P10275 1-920): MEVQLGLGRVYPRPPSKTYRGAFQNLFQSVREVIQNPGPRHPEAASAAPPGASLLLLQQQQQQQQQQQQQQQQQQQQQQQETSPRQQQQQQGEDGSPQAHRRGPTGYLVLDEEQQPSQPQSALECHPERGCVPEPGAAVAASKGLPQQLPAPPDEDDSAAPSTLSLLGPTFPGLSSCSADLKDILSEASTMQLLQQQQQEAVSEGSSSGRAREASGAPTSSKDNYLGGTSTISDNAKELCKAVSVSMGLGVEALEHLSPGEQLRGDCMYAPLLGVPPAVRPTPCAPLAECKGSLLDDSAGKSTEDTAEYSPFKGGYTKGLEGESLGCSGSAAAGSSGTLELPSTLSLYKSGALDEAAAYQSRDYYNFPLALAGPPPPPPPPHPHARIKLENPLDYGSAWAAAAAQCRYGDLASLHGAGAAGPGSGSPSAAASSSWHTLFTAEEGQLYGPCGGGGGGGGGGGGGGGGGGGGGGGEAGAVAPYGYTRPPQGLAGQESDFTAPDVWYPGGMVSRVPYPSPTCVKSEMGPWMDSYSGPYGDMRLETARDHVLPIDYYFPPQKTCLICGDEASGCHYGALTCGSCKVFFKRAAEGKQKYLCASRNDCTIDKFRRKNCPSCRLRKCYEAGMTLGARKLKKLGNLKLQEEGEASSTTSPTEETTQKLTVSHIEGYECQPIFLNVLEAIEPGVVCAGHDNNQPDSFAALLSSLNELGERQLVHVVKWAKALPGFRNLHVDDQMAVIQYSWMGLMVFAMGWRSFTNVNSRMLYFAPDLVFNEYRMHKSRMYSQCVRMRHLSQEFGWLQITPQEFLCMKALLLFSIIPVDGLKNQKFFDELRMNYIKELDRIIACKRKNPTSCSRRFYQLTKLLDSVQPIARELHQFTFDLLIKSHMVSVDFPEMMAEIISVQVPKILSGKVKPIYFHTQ
Method: For native gene expression, C2C12 myotubes were treated compounds for 24 h. For MMTV-Luc assay, steroid-deprived 293T cells were co-transfected with a GR expression plasmid and an MMTV-driven luciferase reporter plasmid. The next day, cells were treated with compounds for 24 hrs. Each point represents the average of triplicate biological measurements for a separate compound. B) AR Luc assay development. Steroid-deprived 293T cells were transfected with AR expression plasmid and an ARR3-tk-driven luciferase reporter. The next day cells were treated with increasing doses of the indicated compounds. Data shown are mean+SD of triplicate measurements. C) AR-Luc assay identified 5 GCs with some AR activity.
For inclusion in the statistical analyses, assays were required to show high reproducibility, with a Pearson correlation >0.8 between different experiments (FIG. 2, H; FIG. 9, A). […] We also analyzed the effects of the compounds on expression of Fkbp5, Pdk4, and Klf15 mRNAs in C2C12 myotubes, and MMTV-luciferase and androgen receptor (AR) driven-luciferase activity in 293T cells. […] We also analyzed the effects of compounds on nuclear translocation of GR using a quantitative HTS approach (Htun et al., Proc. Natl. Acad. Sci. USA 93, 4845-4850, 1996). […]

## C=CCOC1CC2(C)C(CCC2(O)C#CC)C2CCc3cc(C(=O)Nc4cccnc4C)ccc3C12 (centres unmarked) [SR11466]
C2C12 myotubes
  effect on protein degradation (proteasomal): no effect
[1]; A549 cells, with RU486
  inhibition of IL-6 production in combination with RU486: reversed by RU486
[1]; A549 lung cells, read-out: potency for inhibiting IL-1β-induced IL-6 secretion
  IC50: 4 nM

## CC#CC1(O)CCC2C3CCc4cc(C(=O)Nc5cccnc5C)ccc4C3C(OCc3ccccc3Cl)CC21C (centres unmarked) [SR16024]
L6 myotubes
  effect on Glut4 translocation: no inhibition

## CC#CC1(O)CCC2C3CCc4cc(C(=O)Nc5cccnc5C)ccc4C3C(OCc3ccc(Cl)cc3)CC21C (centres unmarked) [SR16025]
Androgen receptor (AR)
  AR activity: weak AR antagonist
